{"source": "ChEMBL document CHEMBL3526057", "about": "(Drug Metab Dispos, 2011)", "assay_type_in_all_cases": "ADME", "key": {"Cytochrome P450 2C19 [1]": {"target": "T1, Cytochrome P450 2C19 (Homo sapiens, UniProt P33261, S51G)", "assay": "Activity of human recombinant CYP2C19.19 mutant expressed in Saccharomyces cerevisiae BJ5457 assessed as omeprazole 5'-hydroxylation per pmol protein at 100 uM after 60 mins", "conditions": "recombinant enzyme, 1 h"}, "Cytochrome P450 2C19 [2]": {"target": "T2, Cytochrome P450 2C19 (Homo sapiens, UniProt P33261, A161P)", "assay": "Activity of human recombinant CYP2C19 A161P mutant expressed in Saccharomyces cerevisiae BJ5457 assessed as omeprazole 5'-hydroxylation per pmol protein at 5 uM after 60 mins", "conditions": "recombinant enzyme, 1 h"}, "Cytochrome P450 2C19 [3]": {"target": "T3, Cytochrome P450 2C19 (Homo sapiens, UniProt P33261, R433W)", "assay": "Activity of human recombinant CYP2C19.5B mutant expressed in Saccharomyces cerevisiae BJ5457 assessed as omeprazole 5'-hydroxylation per pmol protein at 5 uM after 60 mins", "conditions": "recombinant enzyme, 1 h"}, "Cytochrome P450 2C19 [4]": {"target": "T4, Cytochrome P450 2C19 (Homo sapiens, UniProt P33261, E122A)", "assay": "Activity of human recombinant CYP2C19 E122A mutant expressed in Saccharomyces cerevisiae BJ5457 assessed asomeprazole 5'-hydroxylation per pmol protein after 60 mins", "conditions": "recombinant enzyme, 1 h"}, "Cytochrome P450 2C19 [5]": {"target": "T4, Cytochrome P450 2C19", "assay": "Activity of human recombinant CYP2C19 E122A mutant expressed in Saccharomyces cerevisiae BJ5457 assessed as omeprazole 5'-hydroxylation per pmol protein at 100 uM after 60 mins", "conditions": "recombinant enzyme, 1 h"}, "Cytochrome P450 2C19 [6]": {"target": "T1, Cytochrome P450 2C19", "assay": "Activity of human recombinant CYP2C19.19 mutant expressed in Saccharomyces cerevisiae BJ5457 assessed as intrinisic clearance foromeprazole 5'-hydroxylation per pmol protein after 60 mins", "conditions": "recombinant enzyme, 1 h"}, "Cytochrome P450 2C19 [7]": {"target": "T5, Cytochrome P450 2C19 (Homo sapiens, UniProt P33261, F168L)", "assay": "Activity of human recombinant CYP2C19 F168L mutant expressed in Saccharomyces cerevisiae BJ5457 assessed as omeprazole 5'-hydroxylation per pmol protein at 100 uM after 60 mins", "conditions": "recombinant enzyme, 1 h"}, "Cytochrome P450 2C19 [8]": {"target": "T6, Cytochrome P450 2C19 (Homo sapiens, UniProt P33261, P227L)", "assay": "Activity of human recombinant CYP2C19.10 mutant expressed in Saccharomyces cerevisiae BJ5457 assessed asomeprazole 5'-hydroxylation after 60 mins", "conditions": "recombinant enzyme, 1 h"}, "Cytochrome P450 2C19 [9]": {"target": "T7, Cytochrome P450 2C19 (Homo sapiens, UniProt P33261, L17P)", "assay": "Activity of human recombinant CYP2C19.14 mutant expressed in Saccharomyces cerevisiae BJ5457 assessed as omeprazole 5'-hydroxylation per pmol protein at 5 uM after 60 mins", "conditions": "recombinant enzyme, 1 h"}, "Cytochrome P450 2C19 [10]": {"target": "T8, Cytochrome P450 2C19 (Homo sapiens, UniProt P33261, M74T)", "assay": "Activity of human recombinant CYP2C19 M74T mutant expressed in Saccharomyces cerevisiae BJ5457 assessed as intrinisic clearance foromeprazole 5'-hydroxylation per pmol protein after 60 mins", "conditions": "recombinant enzyme, 1 h"}, "Cytochrome P450 2C19 [11]": {"target": "T9, Cytochrome P450 2C19 (Homo sapiens, UniProt P33261, R150H)", "assay": "Activity of human recombinant CYP2C19.11 mutant expressed in Saccharomyces cerevisiae BJ5457 assessed as omeprazole 5'-hydroxylation per pmol protein at 100 uM after 60 mins", "conditions": "recombinant enzyme, 1 h"}, "Cytochrome P450 2C19 [12]": {"target": "T6, Cytochrome P450 2C19", "assay": "Activity of human recombinant CYP2C19.10 mutant expressed in Saccharomyces cerevisiae BJ5457 assessed as intrinisic clearance foromeprazole 5'-hydroxylation per pmol protein after 60 mins", "conditions": "recombinant enzyme, 1 h"}, "Cytochrome P450 2C19 [13]": {"target": "T7, Cytochrome P450 2C19", "assay": "Activity of human recombinant CYP2C19.14 mutant expressed in Saccharomyces cerevisiae BJ5457 assessed as intrinisic clearance foromeprazole 5'-hydroxylation per pmol protein after 60 mins", "conditions": "recombinant enzyme, 1 h"}, "Cytochrome P450 2C19 [14]": {"target": "T9, Cytochrome P450 2C19", "assay": "Activity of human recombinant CYP2C19.11 mutant expressed in Saccharomyces cerevisiae BJ5457 assessed as omeprazole 5'-hydroxylation per pmol protein at 5 uM after 60 mins", "conditions": "recombinant enzyme, 1 h"}, "Cytochrome P450 2C19 [15]": {"target": "Cytochrome P450 2C19 (Homo sapiens, UniProt P33261, R329H)", "assay": "Activity of human recombinant CYP2C19.18 mutant expressed in Saccharomyces cerevisiae BJ5457 assessed asomeprazole 5'-hydroxylation after 60 mins", "conditions": "recombinant enzyme, 1 h"}, "Cytochrome P450 2C19 [16]": {"target": "Cytochrome P450 2C19 (Homo sapiens, UniProt P33261, E92D)", "assay": "Activity of human recombinant CYP2C19 E92D mutant expressed in Saccharomyces cerevisiae BJ5457 assessed as intrinisic clearance foromeprazole 5'-hydroxylation per pmol protein after 60 mins", "conditions": "recombinant enzyme, 1 h"}, "Cytochrome P450 2C19 [17]": {"target": "T5, Cytochrome P450 2C19", "assay": "Activity of human recombinant CYP2C19 F168L mutant expressed in Saccharomyces cerevisiae BJ5457 assessed asomeprazole 5'-hydroxylation after 60 mins", "conditions": "recombinant enzyme, 1 h"}, "[18]": {"target": "CYP2C19.19 (CYP2C19 variant) (Homo sapiens, UniProt P33261, S51G)", "assay": "Activity of human recombinant CYP2C19.19 mutant expressed in Saccharomyces cerevisiae BJ5457 assessed asomeprazole 5'-hydroxylation after 60 mins", "conditions": "probe omeprazole (5'-hydroxylation)"}, "Cytochrome P450 2C19 [19]": {"target": "T10, Cytochrome P450 2C19 (Homo sapiens, UniProt P33261, R410C)", "assay": "Activity of human recombinant CYP2C19.13 mutant expressed in Saccharomyces cerevisiae BJ5457 assessed asomeprazole 5'-hydroxylation per pmol protein after 60 mins", "conditions": "recombinant enzyme, 1 h"}, "Cytochrome P450 2C19 [20]": {"target": "T10, Cytochrome P450 2C19", "assay": "Activity of human recombinant CYP2C19.13 mutant expressed in Saccharomyces cerevisiae BJ5457 assessed as omeprazole 5'-hydroxylation per pmol protein at 100 uM after 60 mins", "conditions": "recombinant enzyme, 1 h"}, "[21]": {"target": "CYP2C19.14 (CYP2C19 variant) (Homo sapiens, UniProt P33261, L17P)", "assay": "Activity of human recombinant CYP2C19.14 mutant expressed in Saccharomyces cerevisiae BJ5457 assessed asomeprazole 5'-hydroxylation after 60 mins", "conditions": "probe omeprazole (5'-hydroxylation)"}, "Cytochrome P450 2C19 [22]": {"target": "T10, Cytochrome P450 2C19", "assay": "Activity of human recombinant CYP2C19.13 mutant expressed in Saccharomyces cerevisiae BJ5457 assessed asomeprazole 5'-hydroxylation after 60 mins", "conditions": "recombinant enzyme, 1 h"}, "Cytochrome P450 2C19 [23]": {"target": "Cytochrome P450 2C19 (Homo sapiens, UniProt P33261, D360N)", "assay": "Activity of human recombinant CYP2C19 D360N mutant expressed in Saccharomyces cerevisiae BJ5457 assessed as intrinisic clearance foromeprazole 5'-hydroxylation per pmol protein after 60 mins", "conditions": "recombinant enzyme, 1 h"}, "Cytochrome P450 2C19 [24]": {"target": "T2, Cytochrome P450 2C19", "assay": "Activity of human recombinant CYP2C19 A161P mutant expressed in Saccharomyces cerevisiae BJ5457 assessed asomeprazole 5'-hydroxylation after 60 mins", "conditions": "recombinant enzyme, 1 h"}, "Cytochrome P450 2C19 [25]": {"target": "T9, Cytochrome P450 2C19", "assay": "Activity of human recombinant CYP2C19.11 mutant expressed in Saccharomyces cerevisiae BJ5457 assessed asomeprazole 5'-hydroxylation after 60 mins", "conditions": "recombinant enzyme, 1 h"}, "[26]": {"assay": "Activity of human recombinant CYP2C19.6 mutant expressed in Saccharomyces cerevisiae BJ5457 assessed as omeprazole 5'-hydroxylation per pmol protein at 100 uM after 60 mins", "conditions": "recombinant enzyme, 1 h"}, "Cytochrome P450 2C19 [27]": {"target": "T9, Cytochrome P450 2C19", "assay": "Activity of human recombinant CYP2C19.11 mutant expressed in Saccharomyces cerevisiae BJ5457 assessed asomeprazole 5'-hydroxylation per pmol protein after 60 mins", "conditions": "recombinant enzyme, 1 h"}, "Cytochrome P450 2C19 [28]": {"target": "T11, Cytochrome P450 2C19 (Homo sapiens, UniProt P33261)", "assay": "Activity of human recombinant CYP2C19.1A mutant expressed in Saccharomyces cerevisiae BJ5457 assessed as omeprazole 5'-hydroxylation per pmol protein at 100 uM after 60 mins", "conditions": "recombinant enzyme, 1 h"}, "Cytochrome P450 2C19 [29]": {"target": "T11, Cytochrome P450 2C19", "assay": "Activity of human recombinant CYP2C19.1B mutant expressed in Saccharomyces cerevisiae BJ5457 assessed asomeprazole 5'-hydroxylation per pmol protein after 60 mins", "conditions": "recombinant enzyme, 1 h"}, "Cytochrome P450 2C19 [30]": {"target": "T3, Cytochrome P450 2C19", "assay": "Activity of human recombinant CYP2C19.5B mutant expressed in Saccharomyces cerevisiae BJ5457 assessed as omeprazole 5'-hydroxylation per pmol protein at 100 uM after 60 mins", "conditions": "recombinant enzyme, 1 h"}, "Cytochrome P450 2C19 [31]": {"target": "T8, Cytochrome P450 2C19", "assay": "Activity of human recombinant CYP2C19 M74T mutant expressed in Saccharomyces cerevisiae BJ5457 assessed as omeprazole 5'-hydroxylation per pmol protein at 5 uM after 60 mins", "conditions": "recombinant enzyme, 1 h"}}}
{"smiles": "COc1ccc2[nH]c([S+]([O-])Cc3ncc(C)c(OC)c3C)nc2c1", "note": "(stereo unspecified) [OMEPRAZOLE]", "values": [{"measurement": "Drug metabolism", "setting": "Cytochrome P450 2C19 [1]", "value": 8.65, "unit": "pmol/min"}, {"measurement": "Drug metabolism", "setting": "Cytochrome P450 2C19 [2]", "value": 0.65, "unit": "pmol/min"}, {"measurement": "Drug metabolism", "setting": "Cytochrome P450 2C19 [3]", "value": "metabolite_not_detected"}, {"measurement": "Vmax", "setting": "Cytochrome P450 2C19 [4]", "value": 4.89, "unit": "pmol/min"}, {"measurement": "Drug metabolism", "setting": "Cytochrome P450 2C19 [5]", "value": 4.71, "unit": "pmol/min"}, {"measurement": "CL", "setting": "Cytochrome P450 2C19 [6]", "value": 0.66, "unit": "µL/min"}, {"measurement": "Drug metabolism", "setting": "Cytochrome P450 2C19 [7]", "value": 5.48, "unit": "pmol/min"}, {"measurement": "Km", "setting": "Cytochrome P450 2C19 [8]", "value": 10.6, "unit": "µM"}, {"measurement": "Drug metabolism", "setting": "Cytochrome P450 2C19 [9]", "value": 2.85, "unit": "pmol/min"}, {"measurement": "CL", "setting": "Cytochrome P450 2C19 [10]", "value": 1.11, "unit": "µL/min"}, {"measurement": "Drug metabolism", "setting": "Cytochrome P450 2C19 [11]", "value": 6.38, "unit": "pmol/min"}, {"measurement": "CL", "setting": "Cytochrome P450 2C19 [12]", "value": 0.5, "unit": "µL/min"}, {"measurement": "CL", "setting": "Cytochrome P450 2C19 [13]", "value": 1.91, "unit": "µL/min"}, {"measurement": "Drug metabolism", "setting": "Cytochrome P450 2C19 [14]", "value": 2.84, "unit": "pmol/min"}, {"measurement": "Km", "setting": "Cytochrome P450 2C19 [15]", "value": 6.02, "unit": "µM"}, {"measurement": "CL", "setting": "Cytochrome P450 2C19 [16]", "value": 0.79, "unit": "µL/min"}, {"measurement": "Km", "setting": "Cytochrome P450 2C19 [17]", "value": 6.56, "unit": "µM"}, {"measurement": "Km at 1 h", "setting": "[18]", "value": 14.5, "unit": "µM"}, {"measurement": "Vmax", "setting": "Cytochrome P450 2C19 [19]", "value": 7.83, "unit": "pmol/min"}, {"measurement": "Drug metabolism", "setting": "Cytochrome P450 2C19 [20]", "value": 8.55, "unit": "pmol/min"}, {"measurement": "Km at 1 h", "setting": "[21]", "value": 4.3, "unit": "µM"}, {"measurement": "Km", "setting": "Cytochrome P450 2C19 [22]", "value": 4.87, "unit": "µM"}, {"measurement": "CL", "setting": "Cytochrome P450 2C19 [23]", "value": 0.53, "unit": "µL/min"}, {"measurement": "Km", "setting": "Cytochrome P450 2C19 [24]", "value": 6.68, "unit": "µM"}, {"measurement": "Km", "setting": "Cytochrome P450 2C19 [25]", "value": 4.91, "unit": "µM"}, {"measurement": "Drug metabolism", "setting": "[26]", "value": "metabolite_not_detected"}, {"measurement": "Vmax", "setting": "Cytochrome P450 2C19 [27]", "value": 8.34, "unit": "pmol/min"}, {"measurement": "Drug metabolism", "setting": "Cytochrome P450 2C19 [28]", "value": 5.87, "unit": "pmol/min"}, {"measurement": "Vmax", "setting": "Cytochrome P450 2C19 [29]", "value": 5.12, "unit": "pmol/min"}, {"measurement": "Drug metabolism", "setting": "Cytochrome P450 2C19 [30]", "value": "metabolite_not_detected"}, {"measurement": "Drug metabolism", "setting": "Cytochrome P450 2C19 [31]", "value": 2.24, "unit": "pmol/min"}]}
